Test results as given in publication PMC6447865, “Novel Group of Imidazole Derivatives as Atypical Selective Cyclooxygenase-2 Inhibitors: Design, Synthesis and Biological Evaluation” (Iranian Journal of Pharmaceutical Research : IJPR, 2018).

Key:
COX-1 enzyme = target: T1, COX-1 enzyme (Ovis aries, UniProt P05979); experiment: biochemical; details: mean of two values; enzyme incubated with inhibitor 2 min, pH 8.0, 25 °C; arachidonic acid substrate; absorbance 590 nm
T1 construct: purchased Cayman 701050
T1 sequence (P05979 25-600): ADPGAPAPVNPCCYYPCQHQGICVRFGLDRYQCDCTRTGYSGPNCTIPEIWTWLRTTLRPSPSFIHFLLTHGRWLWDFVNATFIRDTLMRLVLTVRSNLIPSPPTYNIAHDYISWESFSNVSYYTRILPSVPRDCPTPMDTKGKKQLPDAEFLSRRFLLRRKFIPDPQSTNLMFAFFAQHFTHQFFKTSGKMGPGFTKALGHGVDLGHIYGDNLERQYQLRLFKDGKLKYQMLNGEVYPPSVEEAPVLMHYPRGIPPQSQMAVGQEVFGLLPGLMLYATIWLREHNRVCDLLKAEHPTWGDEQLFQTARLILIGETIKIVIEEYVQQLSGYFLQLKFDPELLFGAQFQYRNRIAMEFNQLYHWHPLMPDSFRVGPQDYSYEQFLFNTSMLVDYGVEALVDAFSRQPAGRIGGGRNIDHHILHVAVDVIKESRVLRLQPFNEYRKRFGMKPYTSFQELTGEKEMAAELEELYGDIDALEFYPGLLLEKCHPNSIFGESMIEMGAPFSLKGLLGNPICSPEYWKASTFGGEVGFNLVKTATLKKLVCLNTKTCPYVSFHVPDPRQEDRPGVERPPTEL
Description: (§1) All test samples were dissolved in DMSO and absorbance was read at 590 nm. The IC50 amounts of the novel compounds were analyzed using nonlinear regression with Dos-response inhibition parameter by the activity base software package (Program Prism, Graph Pad, SanDiego, CA).

COX-2 enzyme = target: T2, COX-2 enzyme (Homo sapiens, UniProt P35354); experiment: biochemical; details: for IC50: mean of two values, enzyme incubated with inhibitor 2 min, pH 8.0, 25 °C, arachidonic acid substrate, absorbance 590 nm; for COX-2 S.I. (in-vitro COX-2 selectivity index, COX-1/COX-2): ratio IC50 COX-1 / IC50 COX-2
T2 construct: purchased Cayman 701050
T2 sequence (P35354 18-604): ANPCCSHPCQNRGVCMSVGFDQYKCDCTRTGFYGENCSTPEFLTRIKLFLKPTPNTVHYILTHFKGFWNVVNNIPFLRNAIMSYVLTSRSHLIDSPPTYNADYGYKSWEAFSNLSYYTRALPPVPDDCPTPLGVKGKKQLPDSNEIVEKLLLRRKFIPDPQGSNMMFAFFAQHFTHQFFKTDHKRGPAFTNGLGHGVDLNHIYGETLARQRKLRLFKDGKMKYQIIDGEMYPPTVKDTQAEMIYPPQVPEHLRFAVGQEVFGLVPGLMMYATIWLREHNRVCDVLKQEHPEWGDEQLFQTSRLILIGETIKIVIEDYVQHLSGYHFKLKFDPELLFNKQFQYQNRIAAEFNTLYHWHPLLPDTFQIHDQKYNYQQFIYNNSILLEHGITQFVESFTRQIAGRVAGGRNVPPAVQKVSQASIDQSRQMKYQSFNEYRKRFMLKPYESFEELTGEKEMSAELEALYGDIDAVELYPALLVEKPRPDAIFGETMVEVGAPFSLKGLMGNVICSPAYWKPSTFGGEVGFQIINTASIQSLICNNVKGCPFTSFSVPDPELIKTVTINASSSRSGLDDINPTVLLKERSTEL
Description: as §1

melting point [°C]	IC50 (COX-1 enzyme) [µM]	IC50 (COX-2 enzyme) [µM]	COX-2 S.I. (in-vitro COX-2 selectivity index, COX-1/COX-2) (COX-2 enzyme)	SMILES
114 to 115	87	3.2	27	CS(=O)(=O)c1ncc(CNc2ccccc2)n1Cc1ccccc1 [Compound 5a, N-((1-benzyl-2-(methylsulfonyl)-1H-imidazol-5-yl)methyl)benzamine]
152	82	0.71	115	COc1ccc(NCc2cnc(S(C)(=O)=O)n2Cc2ccccc2)cc1 [Compound 5b, N-((1-benzyl-2-(methylsulfonyl)-1H-imidazol-5-yl)methyl)-4-methoxybenzamine]
155	78	2.8	28	CS(=O)(=O)c1ncc(CNc2ccc(Br)cc2)n1Cc1ccccc1 [Compound 5c, N-((1-benzyl-2-(methylsulfonyl)-1H-imidazol-5-yl)methyl)-4-bromobenzamine]
177	78	3	26	CS(=O)(=O)c1ncc(CNc2ccc([N+](=O)[O-])cc2)n1Cc1ccccc1 [Compound 5d, N-((1-benzyl-2-(methylsulfonyl)-1H-imidazol-5-yl)methyl)-4-nitrobenzamine]
142	138	3.6	38	CS(=O)(=O)c1ncc(CNc2ccc(Cl)cc2)n1Cc1ccccc1 [Compound 5e, N-((1-benzyl-2-(methylsulfonyl)-1H-imidazol-5-yl)methyl)-4-chlorobenzamine]
